From patent US12558428B2, “Heterobifunctional compounds and their use in treating disease” (Halda Therapeutics OpCo, Inc., priority 2024, dated 2026)

Tested on: T-Rex 293 cells having increased expression of estrogen receptor alpha protein
Test: Cellular growth inhibition assay, T-Rex 293 cells, (+) doxycycline
Type: cell-based
Settings: T-REx-293, 72 h, Table 7-A; T-Rex 293 cells with doxycycline (increased ERα expression); 72 hours; CellTiter-Glo; read-out: (+) Dox GI50
In short: (§1)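 Viability read-out was CellTiter-Glo 2.0 luminescence after 72 h compound exposure, normalized to zero luminescence and fitted by four-parameter regression to give GI50. Cells were an ERα-inducible T-Rex 293 clone cultured with or without 3 ng/mL doxycycline in charcoal-stripped, phenol red-free medium.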

Row | SMILES | GI50 [nM]
1 | Cc1sc2c(c1C)C(c1ccc(C#CC3CC4(CCN(c5ccc([C@H]6c7ccc(O)cc7CC[C@H]6c6ccccc6)cc5)CC4)C3)cc1)=N[C@@H](C)c1nnc(C)n1-2 [III-18] | > 2500
2 | Cc1sc2c(c1C)C(c1ccc(C#CC3CC4(CCN(c5ccc([C@@H]6c7ccc(O)cc7CC[C@@H]6c6ccccc6)cc5)CC4)C3)cc1)=N[C@H](Cc1ncco1)c1nnc(C)n1-2 [III-19] | > 2500
3 | Cc1sc2c(c1C)C(c1ccc(C#CC3CC4(CCN(c5ccc([C@H]6c7ccc(O)cc7CC[C@H]6c6ccccc6)cc5)CC4)C3)cc1)=N[C@H](Cc1ncco1)c1nnc(C)n1-2 [III-20] | > 2500
4 | Cc1sc2c(c1C)C(c1ccc(C#CC3CC4(CCN(c5ccc([C@H]6c7ccc(O)cc7CC[C@H]6c6ccccc6)cc5)CC4)C3)cc1)=N[C@@H](Cc1ncco1)c1nnc(C)n1-2 [III-21] | 500 to 2500
5 | Cc1sc2c(c1C)C(c1ccc(C3CCN(C[C@@H]4[C@H]5CN(c6ccc([C@H]7c8ccc(O)cc8CC[C@H]7c7ccccc7)cc6)C[C@@H]45)CC3)cc1)=N[C@@H](C)c1nnc(C)n1-2 [III-22] | < 50
6 | Cc1sc2c(c1C)C(c1ccc(N3CCN(C[C@@H]4[C@H]5CN(c6ccc([C@@H]7c8ccc(O)cc8CC[C@@H]7c7ccccc7)cc6)C[C@@H]45)CC3)cc1)=N[C@@H](C)c1nnc(C)n1-2 [III-23] | < 50
7 | Cc1sc2c(c1C)C(c1ccc(N3CCC(O)(CN4CCC(c5ccc([C@H]6c7ccc(O)cc7CC[C@H]6c6ccccc6)cc5)CC4)CC3)cc1)=N[C@@H](C)c1nnc(C)n1-2 [III-24] | < 50
8 | Cc1sc2c(c1C)C(c1ccc(N3CCC(O)(CN4CCC(c5ccc([C@@H]6c7ccc(O)cc7CC[C@@H]6c6ccccc6)cc5)CC4)CC3)cc1)=N[C@@H](C)c1nnc(C)n1-2 [III-25] | < 50
9 | Cc1sc2c(c1C)C(c1ccc(C3CCN(CC4(O)CCN(c5ccc([C@@H]6c7ccc(O)cc7CC[C@@H]6c6ccccc6)cc5)CC4)CC3)cc1)=N[C@@H](C)c1nnc(C)n1-2 [III-26] | < 50
10 | Cc1sc2c(c1C)C(c1ccc(C3CCN(CC4(O)CCN(c5ccc([C@H]6c7ccc(O)cc7CC[C@H]6c6ccccc6)cc5)CC4)CC3)cc1)=N[C@@H](C)c1nnc(C)n1-2 [III-27] | < 50
11 | Cc1sc2c(c1C)C(c1ccc(N[C@H]3CCN(CCOc4ccc([C@@H]5c6ccc(O)cc6CC[C@@H]5c5ccccc5)cc4)C3)cc1)=NC(Cc1ncco1)c1nnc(C)n1-2 (stereo partly drawn) [III-28] | 50 to 500
12 | Cc1sc2c(c1C)C(c1ccc(NCCN3CCN(CCOc4ccc([C@@H]5c6ccc(O)cc6CC[C@@H]5c5ccccc5)cc4)CC3)cc1)=NC(Cc1ncco1)c1nnc(C)n1-2 (stereo partly drawn) [III-29] | < 50
13 | Cc1sc2c(c1C)C(c1ccc(NCC3(F)CCN(CCOc4ccc([C@@H]5c6ccc(O)cc6CC[C@@H]5c5ccccc5)cc4)CC3)cc1)=NC(Cc1ncco1)c1nnc(C)n1-2 (stereo partly drawn) [III-30] | < 50
14 | Cc1sc2c(c1C)C(c1ccc(N3C4CCC3CN(CCOc3ccc([C@@H]5c6ccc(O)cc6CC[C@@H]5c5ccccc5)cc3)C4)cc1)=NC(Cc1ncco1)c1nnc(C)n1-2 (stereo partly drawn) [III-31] | > 2500
15 | Cc1sc2c(c1C)C(c1ccc(NCC3CCN(CCOc4ccc([C@@H]5c6ccc(O)cc6CC[C@@H]5c5ccccc5)cc4)CC3)cc1)=NC(Cc1ncco1)c1nnc(C)n1-2 (stereo partly drawn) [III-33] | < 50
16 | Cc1sc2c(c1C)C(c1ccc(NC3CCCN(CCOc4ccc([C@@H]5c6ccc(O)cc6CC[C@@H]5c5ccccc5)cc4)CC3)cc1)=NC(Cc1ncco1)c1nnc(C)n1-2 (stereo partly drawn) [III-34] | < 50
17 | Cc1sc2c(c1C)C(c1ccc(N3CCC(N4CCN(CCOc5ccc([C@@H]6c7ccc(O)cc7CC[C@@H]6c6ccccc6)cc5)CC4)CC3)cc1)=NC(Cc1ncco1)c1nnc(C)n1-2 (stereo partly drawn) [III-35] | < 50

Tested on: T-Rex 293 cells lacking increased expression of estrogen receptor alpha protein
Test: Cellular growth inhibition assay, T-Rex 293 cells, (−) doxycycline
Type: cell-based
Settings: T-REx-293, 72 h, Table 7-A; T-Rex 293 cells without doxycycline (lacking increased ERα expression); 72 hours; CellTiter-Glo; read-out: (−) Dox GI50
In short: as §1

Row | SMILES | GI50 [nM]
18 | Cc1sc2c(c1C)C(c1ccc(C#CC3CC4(CCN(c5ccc([C@H]6c7ccc(O)cc7CC[C@H]6c6ccccc6)cc5)CC4)C3)cc1)=N[C@@H](C)c1nnc(C)n1-2 [III-18] | > 2500
19 | Cc1sc2c(c1C)C(c1ccc(C#CC3CC4(CCN(c5ccc([C@@H]6c7ccc(O)cc7CC[C@@H]6c6ccccc6)cc5)CC4)C3)cc1)=N[C@H](Cc1ncco1)c1nnc(C)n1-2 [III-19] | > 2500
20 | Cc1sc2c(c1C)C(c1ccc(C#CC3CC4(CCN(c5ccc([C@H]6c7ccc(O)cc7CC[C@H]6c6ccccc6)cc5)CC4)C3)cc1)=N[C@H](Cc1ncco1)c1nnc(C)n1-2 [III-20] | > 2500
21 | Cc1sc2c(c1C)C(c1ccc(C#CC3CC4(CCN(c5ccc([C@H]6c7ccc(O)cc7CC[C@H]6c6ccccc6)cc5)CC4)C3)cc1)=N[C@@H](Cc1ncco1)c1nnc(C)n1-2 [III-21] | > 2500
22 | Cc1sc2c(c1C)C(c1ccc(C3CCN(C[C@@H]4[C@H]5CN(c6ccc([C@H]7c8ccc(O)cc8CC[C@H]7c7ccccc7)cc6)C[C@@H]45)CC3)cc1)=N[C@@H](C)c1nnc(C)n1-2 [III-22] | 500 to 2500
23 | Cc1sc2c(c1C)C(c1ccc(N3CCN(C[C@@H]4[C@H]5CN(c6ccc([C@@H]7c8ccc(O)cc8CC[C@@H]7c7ccccc7)cc6)C[C@@H]45)CC3)cc1)=N[C@@H](C)c1nnc(C)n1-2 [III-23] | > 2500
24 | Cc1sc2c(c1C)C(c1ccc(N3CCC(O)(CN4CCC(c5ccc([C@H]6c7ccc(O)cc7CC[C@H]6c6ccccc6)cc5)CC4)CC3)cc1)=N[C@@H](C)c1nnc(C)n1-2 [III-24] | 50 to 500
25 | Cc1sc2c(c1C)C(c1ccc(N3CCC(O)(CN4CCC(c5ccc([C@@H]6c7ccc(O)cc7CC[C@@H]6c6ccccc6)cc5)CC4)CC3)cc1)=N[C@@H](C)c1nnc(C)n1-2 [III-25] | 500 to 2500
26 | Cc1sc2c(c1C)C(c1ccc(C3CCN(CC4(O)CCN(c5ccc([C@@H]6c7ccc(O)cc7CC[C@@H]6c6ccccc6)cc5)CC4)CC3)cc1)=N[C@@H](C)c1nnc(C)n1-2 [III-26] | 50 to 500
27 | Cc1sc2c(c1C)C(c1ccc(C3CCN(CC4(O)CCN(c5ccc([C@H]6c7ccc(O)cc7CC[C@H]6c6ccccc6)cc5)CC4)CC3)cc1)=N[C@@H](C)c1nnc(C)n1-2 [III-27] | 50 to 500
28 | Cc1sc2c(c1C)C(c1ccc(N[C@H]3CCN(CCOc4ccc([C@@H]5c6ccc(O)cc6CC[C@@H]5c5ccccc5)cc4)C3)cc1)=NC(Cc1ncco1)c1nnc(C)n1-2 (stereo partly drawn) [III-28] | 50 to 500
29 | Cc1sc2c(c1C)C(c1ccc(NCCN3CCN(CCOc4ccc([C@@H]5c6ccc(O)cc6CC[C@@H]5c5ccccc5)cc4)CC3)cc1)=NC(Cc1ncco1)c1nnc(C)n1-2 (stereo partly drawn) [III-29] | 50 to 500
30 | Cc1sc2c(c1C)C(c1ccc(NCC3(F)CCN(CCOc4ccc([C@@H]5c6ccc(O)cc6CC[C@@H]5c5ccccc5)cc4)CC3)cc1)=NC(Cc1ncco1)c1nnc(C)n1-2 (stereo partly drawn) [III-30] | 50 to 500
31 | Cc1sc2c(c1C)C(c1ccc(N3C4CCC3CN(CCOc3ccc([C@@H]5c6ccc(O)cc6CC[C@@H]5c5ccccc5)cc3)C4)cc1)=NC(Cc1ncco1)c1nnc(C)n1-2 (stereo partly drawn) [III-31] | 50 to 500
32 | Cc1sc2c(c1C)C(c1ccc(NCC3CCN(CCOc4ccc([C@@H]5c6ccc(O)cc6CC[C@@H]5c5ccccc5)cc4)CC3)cc1)=NC(Cc1ncco1)c1nnc(C)n1-2 (stereo partly drawn) [III-33] | 50 to 500
33 | Cc1sc2c(c1C)C(c1ccc(NC3CCCN(CCOc4ccc([C@@H]5c6ccc(O)cc6CC[C@@H]5c5ccccc5)cc4)CC3)cc1)=NC(Cc1ncco1)c1nnc(C)n1-2 (stereo partly drawn) [III-34] | 50 to 500
34 | Cc1sc2c(c1C)C(c1ccc(N3CCC(N4CCN(CCOc5ccc([C@@H]6c7ccc(O)cc7CC[C@@H]6c6ccccc6)cc5)CC4)CC3)cc1)=NC(Cc1ncco1)c1nnc(C)n1-2 (stereo partly drawn) [III-35] | 50 to 500

Tested on: MCF7 cells (ATCC #HTB-22)
Test: Cellular growth inhibition assay, MCF7 cells purchased from ATCC
Type: cell-based
Settings: Homo sapiens, MCF7, 144 h, Table 8-A; MCF7 cells purchased from ATCC; six days; CellTiter-Glo; read-out: GI50
In short: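 MCF7 cells in RPMI 1640 with 10% FBS and 0.2 U/ml insulin, seeded at 1,500 cells/well (ATCC) or 225 cells/well (ECACC). Compounds added 24 h later, then 6 days at 37° C. Viability by CellTiter-Glo 2.0 luminescence. GI50 from four-parameter fit.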

Row | SMILES | GI50 [nM]
35 | Cc1sc2c(c1C)C(c1ccc(C#CC3CC4(CCN(c5ccc([C@H]6c7ccc(O)cc7CC[C@H]6c6ccccc6)cc5)CC4)C3)cc1)=N[C@@H](C)c1nnc(C)n1-2 [III-18] | 500 to 2500
36 | Cc1sc2c(c1C)C(c1ccc(C#CC3CC4(CCN(c5ccc([C@@H]6c7ccc(O)cc7CC[C@@H]6c6ccccc6)cc5)CC4)C3)cc1)=N[C@H](Cc1ncco1)c1nnc(C)n1-2 [III-19] | > 2500
37 | Cc1sc2c(c1C)C(c1ccc(C#CC3CC4(CCN(c5ccc([C@H]6c7ccc(O)cc7CC[C@H]6c6ccccc6)cc5)CC4)C3)cc1)=N[C@H](Cc1ncco1)c1nnc(C)n1-2 [III-20] | > 2500
38 | Cc1sc2c(c1C)C(c1ccc(C#CC3CC4(CCN(c5ccc([C@H]6c7ccc(O)cc7CC[C@H]6c6ccccc6)cc5)CC4)C3)cc1)=N[C@@H](Cc1ncco1)c1nnc(C)n1-2 [III-21] | 500 to 2500
39 | Cc1sc2c(c1C)C(c1ccc(C3CCN(C[C@@H]4[C@H]5CN(c6ccc([C@H]7c8ccc(O)cc8CC[C@H]7c7ccccc7)cc6)C[C@@H]45)CC3)cc1)=N[C@@H](C)c1nnc(C)n1-2 [III-22] | 50 to 500
40 | Cc1sc2c(c1C)C(c1ccc(N3CCN(C[C@@H]4[C@H]5CN(c6ccc([C@@H]7c8ccc(O)cc8CC[C@@H]7c7ccccc7)cc6)C[C@@H]45)CC3)cc1)=N[C@@H](C)c1nnc(C)n1-2 [III-23] | 50 to 500
41 | Cc1sc2c(c1C)C(c1ccc(N3CCC(O)(CN4CCC(c5ccc([C@H]6c7ccc(O)cc7CC[C@H]6c6ccccc6)cc5)CC4)CC3)cc1)=N[C@@H](C)c1nnc(C)n1-2 [III-24] | 50 to 500
42 | Cc1sc2c(c1C)C(c1ccc(N3CCC(O)(CN4CCC(c5ccc([C@@H]6c7ccc(O)cc7CC[C@@H]6c6ccccc6)cc5)CC4)CC3)cc1)=N[C@@H](C)c1nnc(C)n1-2 [III-25] | < 50
43 | Cc1sc2c(c1C)C(c1ccc(C3CCN(CC4(O)CCN(c5ccc([C@@H]6c7ccc(O)cc7CC[C@@H]6c6ccccc6)cc5)CC4)CC3)cc1)=N[C@@H](C)c1nnc(C)n1-2 [III-26] | 50 to 500
44 | Cc1sc2c(c1C)C(c1ccc(C3CCN(CC4(O)CCN(c5ccc([C@H]6c7ccc(O)cc7CC[C@H]6c6ccccc6)cc5)CC4)CC3)cc1)=N[C@@H](C)c1nnc(C)n1-2 [III-27] | 50 to 500
45 | Cc1sc2c(c1C)C(c1ccc(N[C@H]3CCN(CCOc4ccc([C@@H]5c6ccc(O)cc6CC[C@@H]5c5ccccc5)cc4)C3)cc1)=NC(Cc1ncco1)c1nnc(C)n1-2 (stereo partly drawn) [III-28] | 50 to 500
46 | Cc1sc2c(c1C)C(c1ccc(NCCN3CCN(CCOc4ccc([C@@H]5c6ccc(O)cc6CC[C@@H]5c5ccccc5)cc4)CC3)cc1)=NC(Cc1ncco1)c1nnc(C)n1-2 (stereo partly drawn) [III-29] | 50 to 500
47 | Cc1sc2c(c1C)C(c1ccc(NCC3(F)CCN(CCOc4ccc([C@@H]5c6ccc(O)cc6CC[C@@H]5c5ccccc5)cc4)CC3)cc1)=NC(Cc1ncco1)c1nnc(C)n1-2 (stereo partly drawn) [III-30] | 50 to 500
48 | Cc1sc2c(c1C)C(c1ccc(N3C4CCC3CN(CCOc3ccc([C@@H]5c6ccc(O)cc6CC[C@@H]5c5ccccc5)cc3)C4)cc1)=NC(Cc1ncco1)c1nnc(C)n1-2 (stereo partly drawn) [III-31] | 50 to 500
49 | Cc1sc2c(c1C)C(c1ccc(NCC3CCN(CCOc4ccc([C@@H]5c6ccc(O)cc6CC[C@@H]5c5ccccc5)cc4)CC3)cc1)=NC(Cc1ncco1)c1nnc(C)n1-2 (stereo partly drawn) [III-33] | 50 to 500
50 | Cc1sc2c(c1C)C(c1ccc(NC3CCCN(CCOc4ccc([C@@H]5c6ccc(O)cc6CC[C@@H]5c5ccccc5)cc4)CC3)cc1)=NC(Cc1ncco1)c1nnc(C)n1-2 (stereo partly drawn) [III-34] | 50 to 500
51 | Cc1sc2c(c1C)C(c1ccc(N3CCC(N4CCN(CCOc5ccc([C@@H]6c7ccc(O)cc7CC[C@@H]6c6ccccc6)cc5)CC4)CC3)cc1)=NC(Cc1ncco1)c1nnc(C)n1-2 (stereo partly drawn) [III-35] | < 50
